Holding throughout (assay): NCI anticancer screen, dose series, 48 h
Assay [1] has as its system Hs-578T.
Assay [2] relates to CCRF-CEM.
The test system of assay [3] is Malme-3M.
For assay [4], the system named is NCI-H522.
Assay [5] has as its system M19-MEL.
The subject of assay [6] is MDA-MB-435.
The subject of assay [7] is HCT-116.
Assay [8] deals with UACC-257.
For assay [9], the system named is IGROV-1.
Assay [10] has as its system SN12C.
Assay [11] has as its system MDA-MB-231.
Assay [12] has as its system NCI-H23.
In assay [13] the test system is HCT-15.
For assay [14], the system named is OVCAR-4.
Assay [15] concerns HOP-92.
The test system of assay [16] is NCI-H460.
The subject of assay [17] is UO-31.
Assay [18] has as its system SF-295.
The test system of assay [19] is COLO 205.
For assay [20], the system named is T47D.

This note sets out measurements from ChEMBL document CHEMBL1201862, “PubChem BioAssay data set” (2004).

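These data come from cells grown in 96-well plates and exposed to compound for 48 hours at five concentrations. GI50 is the concentration that inhibits growth by half.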 Active and inactive are the calls of the source. Rule as the data show it: active = GI50 up to about 1.1 µM and inactive = higher. Where a SMILES comes first, the peptide text is derived from it. [ ]: non-standard residue; d: D form. The star is where a group is joined. ξ: configuration not given here. NMeF = CN[C@@H](Cc1ccccc1)C(=O)O; NMeV = CN[C@H](C(=O)O)C(C)C; ξNMeN = CNC(CC(N)=O)C(=O)O; NMeA = CN[C@@H](C)C(=O)O; ξNMeV = CNC(C(=O)O)C(C)C; Boc = CC(C)(C)OC(=O)*

For the compound `O=C1/C(=C/c2ccc(O)c(O)c2)CCC/C1=C\c1ccc(O)c(O)c1`, the GI50 in assay [1] was 3.18 µM (inactive); in [2], 1.52 µM (inactive); in assay [3], 2.46 µM (inactive); in [4], 0.729 µM (active); in [5], 3.43 µM (inactive); in [6] it was 2.91 µM (inactive). The GI50 is 2.37 µM (inactive) in [7]; 4.51 µM (inactive) in assay [8]; 4.05 µM (inactive) in [9]; 4.41 µM (inactive) in assay [10]; 5.14 µM (inactive) in assay [11]; 2.76 µM (inactive) in [12]. Further, the GI50 was 4.13 µM in assay [13]; 5.38 µM (inactive) in assay [14]; 2.98 µM (inactive) in [15]; 3.45 µM (inactive) in [16]; 2 µM (inactive) in [17]; 8.07 µM (inactive) in assay [18]. Further, the GI50 was 7.03 µM (inactive) in assay [19] and 3.87 µM (inactive) in [20].

`COc1ccccc1/C=C1\CCC(CN(C)C)C1=O` (centres undefined): the GI50 in assay [1] is 9.86 µM (inactive); in [2], 1.5 µM (inactive); in assay [3] it was 6.19 µM (inactive); in assay [4], 1.85 µM (inactive); in [5], 2.78 µM (inactive); in [6], 8.83 µM (inactive). The GI50 is 3.48 µM (inactive) in [7]; 10.8 µM (inactive) in assay [8]; 13.3 µM (inactive) in [9]; 2.48 µM (inactive) in assay [10]; 2.43 µM (inactive) in [11]; 10.8 µM (inactive) in assay [12]. The GI50 in assay [13] is 2.75 µM; in assay [14], 6.92 µM (inactive); in assay [15], 2.99 µM (inactive); in [16] it was 19.6 µM (inactive); in assay [17], 7.74 µM (inactive); in assay [18], 15.2 µM (inactive). Further, the GI50 was 2.25 µM (inactive) in assay [19] and 3.58 µM (inactive) in [20].

`COc1ccc2c(c1)c1c3n2CCNN=C3CCC1`: the GI50 in assay [2] was 56.1 µM (inactive); in assay [3] it was > 100 µM (inactive); in assay [4] it was 21.5 µM (inactive); in assay [5], > 100 µM (inactive); in assay [7], 99.5 µM (inactive); in [8], > 53.8 µM (inactive). Further, the GI50 is > 85.7 µM (inactive) in assay [9]; > 61.7 µM (inactive) in assay [10]; > 62.8 µM (inactive) in assay [12]; greater than 70.1 µM in [13]; > 100 µM (inactive) in [14]; > 49.2 µM (inactive) in [15]. For the same compound, the GI50 in assay [16] was > 100 µM (inactive); in [17] it was > 43.7 µM (inactive); in [18] it was > 100 µM (inactive); in assay [19] it was > 91 µM (inactive).

Take `O=C(O)c1ccc(S(=O)(=O)c2ccccc2)c([N+](=O)[O-])c1`: the GI50 in assay [2], in assay [3], in assay [4], in assay [5], in assay [7] and in assay [8] was > 100 µM (inactive) each time. The GI50 is > 100 µM (inactive) in assay [9]; > 100 µM (inactive) in assay [10]; > 100 µM (inactive) in assay [12]; 93.1 µM in assay [13]; > 100 µM (inactive) in assay [14]; > 100 µM (inactive) in assay [15]. The GI50 in assay [16], in [17], in [18] and in assay [19] was > 100 µM (inactive) throughout.

Turning to `COc1cc(/C=C\c2ccccn2)cc(OC)c1OC`, the GI50 in assay [2] was > 100 µM (inactive); in [3] it was > 100 µM (inactive); in assay [4], 70 µM (inactive); in [5], 67.3 µM (inactive); in [7], > 100 µM (inactive); in assay [8] it was > 100 µM (inactive). The GI50 in assay [9] was > 100 µM (inactive); in assay [10], > 100 µM (inactive); in assay [12] it was > 100 µM (inactive); in assay [13] it was 78.3 µM; in assay [14], > 100 µM (inactive); in [15], 16.4 µM (inactive). The GI50 was > 100 µM (inactive) in assay [16], 56.9 µM (inactive) in assay [17], > 100 µM (inactive) in assay [18] and 66.1 µM (inactive) in assay [19].

With `CC(C)NC(C)Cc1ccccc1` (centres undefined), the GI50 in assay [2], in assay [3], in [4], in assay [5], in assay [7] and in [8] was > 100 µM (inactive) in each case. The GI50 is > 100 µM (inactive) in assay [9]; > 100 µM (inactive) in assay [10]; > 100 µM (inactive) in assay [12]; 3.97 µM in assay [13]; > 100 µM (inactive) in [14]; > 100 µM (inactive) in [15]. Also, the GI50 in [16], in assay [17], in assay [18] and in [19] was > 100 µM (inactive) in each case.

Turning to `CCC(=O)N/N=C(\C=C\c1cccc(O)c1)c1sc(Nc2ccc(C)cc2[N+](=O)[O-])nc1C`, the GI50 in assay [2] was 99.1 µM (inactive); in assay [3], > 100 µM (inactive); in [4], 45.8 µM (inactive); in assay [5] it was > 100 µM (inactive); in assay [7], > 100 µM (inactive); in assay [8], > 100 µM (inactive). The GI50 in [9] was > 100 µM (inactive); in [10], > 100 µM (inactive); in assay [12], 2.22 µM (inactive); in [13], 81.8 µM; in assay [14] it was 49 µM (inactive); in assay [15], 13.7 µM (inactive). In addition, the GI50 in assay [16] was > 100 µM (inactive); in assay [17], > 100 µM (inactive); in [18], 48.4 µM (inactive); in [19] it was > 100 µM (inactive).

As for `COC(=O)[C@H](C)N(C)C(=O)C(CC(N)=O)N(C)C(=O)[C@H](Cc1ccccc1)N(C)C(=O)[C@@H]1CCCN1C(=O)[C@H](C(C)C)N(C)C(=O)C(C(C)C)N(C)C(=O)[C@@H](NC(=O)OC(C)(C)C)C(C)C` (some centres undefined) (Boc-V[ξNMeV][NMeV]P[NMeF][ξNMeN][NMeA]-OMe), the GI50 in assay [2] is 13.6 µM (inactive); in [3] it was > 75 µM (inactive); in [4] it was > 50 µM (inactive); in [5] it was 18.4 µM (inactive); in assay [6] it was > 50 µM (inactive); in assay [7], > 50 µM (inactive). Besides, the GI50 in [8] is > 50 µM (inactive); in [9] it was > 50 µM (inactive); in assay [10], > 50 µM (inactive); in assay [11], > 50 µM (inactive); in assay [12], > 50 µM (inactive); in [13], greater than 75 µM. Also, the GI50 was 38.5 µM (inactive) in assay [14]; 29 µM (inactive) in assay [15]; > 50 µM (inactive) in assay [16]; > 50 µM (inactive) in assay [17]; > 50 µM (inactive) in assay [18]; > 50 µM (inactive) in [19]. In addition, the GI50 in [20] was > 50 µM (inactive).

For the compound `C[C@H]1C/C=C/[C@H]2[C@@H]3O[C@]3(C)[C@@H](C)[C@H]3[C@H](Cc4ccccc4)NC(=O)[C@]32OC(=O)O/C=C/[C@@](C)(O)C1=O` [CYTOCHALASIN E], the GI50 in assay [1] was 0.0171 µM (active); in assay [2], 0.021 µM (active); in [3], 0.0251 µM (active); in assay [4] it was 0.0431 µM (active); in [5] it was 0.0759 µM (active); in assay [6] it was 18.9 µM (inactive). Further, the GI50 in assay [8] was 0.263 µM (active); in [10], 3.16 µM (inactive); in assay [11] it was < 0.01 µM (active); in assay [12], 0.197 µM (active); in [13], 0.0834 µM; in assay [14] it was 0.0262 µM (active). The GI50 in assay [15] is 0.0239 µM (active); in assay [16] it was 0.0161 µM (active); in assay [17], 0.0199 µM (active).
